According to patent US20210284633A1, “3-(2-THIENYL)-5-(TRIFLUOROMETHYL)-1,2,4-OXADIAZOLE DERIVATIVES AS AGROCHEMICAL FUNGICIDES” (SYNGENTA CROP PROTECTION AG, priority 2018, published 2021):

How the values were obtained:
[1] = tested on: Puccinia recondita f. Sp. tritici; assay: Puccinia recondita f. sp. tritici / wheat / leaf disc preventative (brown rust); assay type: in vivo; conditions: foliar, 200 ppm in the applied formulation, wheat leaf segments cv. Kanzler, inoculated 1 day after application, assessed 7 to 9 days after application, compared to untreated, read-out: disease control
Protocol: Leaf disks or leaf segments of various plant species are cut from plants grown in a greenhouse. The cut leaf disks or segments are placed in multiwell plates (24-well format) onto water agar. The leaf disks are sprayed with a test solution before (preventative) or after (curative) inoculation. Compounds to be tested are prepared as DMSO solutions (max. 10 mg/mL) which are diluted to the appropriate concentration with 0.025% Tween20 just before spraying. The inoculated leaf disks or segments are incubated under defined conditions (temperature, relative humidity, light, etc.) according to the respective test system. A single evaluation of disease level is carried out 3 to 14 days after inoculation, depending on the pathosystem. Percent disease control relative to the untreated check leaf disks or segments is then calculated. Example 1: Fungicidal Activity Against Puccinia recondita f. Sp. tritici/Wheat/Leaf Disc Preventative (Brown Rust) Wheat leaf segments cv. Kanzler were placed on agar in multiwell plates (24-well format) and sprayed with the formulated test compound diluted in water. The leaf disks were inoculated with a spore suspension of the fungus 1 day after application. The inoculated leaf segments were incubated at 19° C. and 75% relative humidity (rh) under a light regime of 12 hours light/12 hours darkness in a climate cabinet and the activity of a compound was assessed as percent disease control compared to untreated when an appropriate level of disease damage appears in untreated check leaf segments (7 to 9 days after application). The following compounds at 200 ppm in the applied formulation give at least 80% disease control in this test when compared to untreated control leaf disks under the same conditions, which show extensive disease development.

[2] = tested on: Puccinia recondita f. Sp. tritici; assay: Puccinia recondita f. sp. tritici / wheat / leaf disc curative (brown rust); assay type: in vivo; conditions: foliar, 200 ppm in the applied formulation, wheat leaf segments cv. Kanzler, applied 1 day after inoculation, assessed 6 to 8 days after application, compared to untreated, read-out: disease control
Protocol: Leaf disks or leaf segments of various plant species are cut from plants grown in a greenhouse. The cut leaf disks or segments are placed in multiwell plates (24-well format) onto water agar. The leaf disks are sprayed with a test solution before (preventative) or after (curative) inoculation. Compounds to be tested are prepared as DMSO solutions (max. 10 mg/mL) which are diluted to the appropriate concentration with 0.025% Tween20 just before spraying. The inoculated leaf disks or segments are incubated under defined conditions (temperature, relative humidity, light, etc.) according to the respective test system. A single evaluation of disease level is carried out 3 to 14 days after inoculation, depending on the pathosystem. Percent disease control relative to the untreated check leaf disks or segments is then calculated. Example 2: Fungicidal Activity Against Puccinia recondita f. sp. tritici/Wheat/Leaf Disc Curative (Brown Rust) Wheat leaf segments cv. Kanzler are placed on agar in multiwell plates (24-well format). The leaf segments are then inoculated with a spore suspension of the fungus. Plates were stored in darkness at 19° C. and 75% relative humidity. The formulated test compound diluted in water was applied 1 day after inoculation. The leaf segments were incubated at 19° C. and 75% relative humidity under a light regime of 12 hours light/12 hours darkness in a climate cabinet and the activity of a compound was assessed as percent disease control compared to untreated when an appropriate level of disease damage appears in untreated check leaf segments (6 to 8 days after application). The following compounds at 200 ppm in the applied formulation give at least 80% disease control in this test when compared to untreated control leaf disks under the same conditions, which show extensive disease development.

Phakopsora pachurhizi = Phakopsora pachurhizi / soybean / leaf disc preventative (Asian soybean rust); assay type: in vivo; conditions: Glycine max, foliar, 200 ppm in the applied formulation, soybean leaf disks, inoculated one day after application, assessed 12 to 14 days after application, compared to untreated, read-out: disease control
Protocol: Leaf disks or leaf segments of various plant species are cut from plants grown in a greenhouse. The cut leaf disks or segments are placed in multiwell plates (24-well format) onto water agar. The leaf disks are sprayed with a test solution before (preventative) or after (curative) inoculation. Compounds to be tested are prepared as DMSO solutions (max. 10 mg/mL) which are diluted to the appropriate concentration with 0.025% Tween20 just before spraying. The inoculated leaf disks or segments are incubated under defined conditions (temperature, relative humidity, light, etc.) according to the respective test system. A single evaluation of disease level is carried out 3 to 14 days after inoculation, depending on the pathosystem. Percent disease control relative to the untreated check leaf disks or segments is then calculated.
Example 3: Fungicidal Activity Against Phakopsora pachurhizi/Soybean/Leaf Disc Preventative (Asian Soybean Rust)
Soybean leaf disks are placed on water agar in multiwell plates (24-well format) and sprayed with the formulated test compound diluted in water. One day after application leaf discs are inoculated by spraying a spore suspension on the lower leaf surface. After an incubation period in a climate cabinet of 24-36 hours in darkness at 20° C. and 75% rh leaf disc are kept at 20° C. with 12 hours light/day and 75% rh. The activity of a compound is assessed as percent disease control compared to untreated when an appropriate level of disease damage appears in untreated check leaf disks (12 to 14 days after application).
The following compounds at 200 ppm in the applied formulation give at least 80% disease control in this test when compared to untreated control leaf disks under the same conditions, which show extensive disease development.

Glomerella lagenarium = Glomerella lagenarium liquid culture / cucumber / preventative (anthracnose); assay type: cell-based; conditions: Colletotrichum orbiculare; 20 ppm in the applied formulation; liquid culture in PDB, 24° C.; measured 3 to 4 days after application; compared to untreated; read-out: disease control (inhibition of growth, photometric)
Protocol: Mycelia fragments or conidia suspensions of a fungus prepared either freshly from liquid cultures of the fungus or from cryogenic storage, are directly mixed into nutrient broth. DMSO solutions of the test compound (max. 10 mg/mL) are diluted with 0.025% Tween20 by a factor of 50 and 10 μL of this solution is pipetted into a microtiter plate (96-well format). The nutrient broth containing the fungal spores/mycelia fragments is then added to give an end concentration of the tested compound. The test plates are incubated in the dark at 24° C. and 96% relative humidity. The inhibition of fungal growth is determined photometrically after 2 to 7 days, depending on the pathosystem, and percent antifungal activity relative to the untreated check is calculated. Example 4: Fungicidal activity against Glomerella lagenarium liquid culture/cucumber/Preventative (Anthracnose) Conidia of the fungus from cryogenic storage are directly mixed into nutrient broth (PDB—potato dextrose broth). After placing a (DMSO) solution of test compound into a microtiter plate (96-well format), the nutrient broth containing the fungal spores is added. The test plates are incubated at 24° C. and the inhibition of growth is measured photometrically 3 to 4 days after application. The following compounds at 20 ppm in the applied formulation give at least 80% disease control in this test when compared to untreated control under the same conditions, which show extensive disease development.

melting point [°C]	SMILES	pest or weed control at 200 ppm [1] [%]	pest or weed control at 200 ppm [2] [%]	pest or weed control at 200 ppm (Phakopsora pachurhizi) [%]	inhibition at 20 ppm (Glomerella lagenarium) [%]
–	CCC(O)(c1ccc(C)cn1)c1ccc(-c2noc(C(F)(F)F)n2)s1 (stereo not drawn) [Compound 1.10, 1-(5-methyl-2-pyridyl)-1-[5-[5-(trifluoromethyl)-1,2,4-oxadiazol-3-yl]-2-thienyl]propan-1-ol]	≥ 80	≥ 80	≥ 80	≥ 80
–	Cc1ccc(C(O)c2ccc(-c3noc(C(F)(F)F)n3)s2)nc1 (stereo not drawn) [Compound 1.13, (5-methyl-2-pyridyl)-[5-[5-(trifluoromethyl)-1,2,4-oxadiazol-3-yl]-2-thienyl]methanol]	≥ 80	≥ 80	≥ 80	≥ 80
80 to 85	O=C(c1cnc(Cl)cn1)c1ccc(-c2noc(C(F)(F)F)n2)s1 [Compound 1.9, (5-chloropyrazin-2-yl)-[5-[5-(trifluoromethyl)-1,2,4-oxadiazol-3-yl]-2-thienyl]methanone]	≥ 80	≥ 80	–	≥ 80
–	FC(F)(F)c1nc(-c2ccc(Cc3cnccn3)s2)no1 [Compound 1.4, 3-[5-(pyrazin-2-ylmethyl)-2-thienyl]-5-(trifluoromethyl)-1,2,4-oxadiazole]	≥ 80	≥ 80	≥ 80	≥ 80
95 to 100	Cc1cnc(C(O)c2ccc(-c3noc(C(F)(F)F)n3)s2)cn1 (stereo not drawn) [Compound 1.3, (5-methylpyrazin-2-yl)-[5-[5-(trifluoromethyl)-1,2,4-oxadiazol-3-yl]-2-thienyl]methanol]	≥ 80	≥ 80	≥ 80	≥ 80
110 to 116	O=C(c1ncccn1)c1ccc(-c2noc(C(F)(F)F)n2)s1 [Compound 1.7, pyrimidin-2-yl-[5-[5-(trifluoromethyl)-1,2,4-oxadiazol-3-yl]-2-thienyl]methanone]	≥ 80	≥ 80	≥ 80	≥ 80
95 to 105	O=C(c1cnccn1)c1ccc(-c2noc(C(F)(F)F)n2)s1 [Compound 1.5, pyrazin-2-yl-[5-[5-(trifluoromethyl)-1,2,4-oxadiazol-3-yl]-2-thienyl]methanone]	≥ 80	≥ 80	≥ 80	≥ 80
–	OC(c1cnccn1)c1ccc(-c2noc(C(F)(F)F)n2)s1 (stereo not drawn) [Compound 1.6, pyrazin-2-yl-[5-[5-(trifluoromethyl)-1,2,4-oxadiazol-3-yl]-2-thienyl]methanol]	≥ 80	≥ 80	–	≥ 80
–	Cc1cnc(Cc2ccc(-c3noc(C(F)(F)F)n3)s2)cn1 [Compound 1.1, 3-[5-[(5-methylpyrazin-2-yl)methyl]-2-thienyl]-5-(trifluoromethyl)-1,2,4-oxadiazole]	≥ 80	≥ 80	≥ 80	≥ 80
105 to 110	Cc1cnc(C(=O)c2ccc(-c3noc(C(F)(F)F)n3)s2)cn1 [Compound 1.2, (5-methylpyrazin-2-yl)-[5-[5-(trifluoromethyl)-1,2,4-oxadiazol-3-yl]-2-thienyl]methanone]	≥ 80	≥ 80	≥ 80	≥ 80
40 to 45	Cc1ccc(Cc2ccc(-c3noc(C(F)(F)F)n3)s2)nc1 [Compound 1.11, 3-[5-[(5-methyl-2-pyridyl)methyl]-2-thienyl]-5-(trifluoromethyl)-1,2,4-oxadiazole]	≥ 80	≥ 80	≥ 80	≥ 80
98 to 112	Cc1ccc(C(=O)c2ccc(-c3noc(C(F)(F)F)n3)s2)nc1C [Compound 1.8, (5,6-dimethyl-2-pyridyl)-[5-[5-(trifluoromethyl)-1,2,4-oxadiazol-3-yl]-2-thienyl]methanone]	≥ 80	≥ 80	≥ 80	–
111 to 114	Cc1ccc(C(=O)c2ccc(-c3noc(C(F)(F)F)n3)s2)nc1 [Compound 1.12, (5-methyl-2-pyridyl)-[5-[5-(trifluoromethyl)-1,2,4-oxadiazol-3-yl]-2-thienyl]methanone]	≥ 80	≥ 80	≥ 80	≥ 80
